Results from US4357344A, “Polybutylbenzylphenols and benzyl-3,4-methylenedioxybenzenes in insect population control” (The United States of America as represented by the …, priority 1979, dated 1982).

Tests used:
[1] = Solubility in water; format: physicochemical
[2] = tested on: Salmonella tester strains TA-100, TA-98, TA-1537; assay: Ames' Salmonella/microsome mutagenicity procedure; conditions: TA-100, TA-98, TA-1537; without or with metabolic activation
Protocol: The mutagenic activity of D, A, B, M, N, and CC were tested by the standard Ames' Salmonella/microsome procedure, which is reported to show better than 90% correlation with development of mammalian cancers (Ames et al., Mutation Research, Vol. 31, p. 347, 1975; McCann et al., Proc. Nat. Acad. Sci., Vol. 72, p. 5135, 1975). Tester strains TA-100, TA-98, TA-1537 and the plate test method were used, employing concentrations of 10, 100, 1000, and 10,000 […]. The metabolic activation mixture (S-9 mix) used the 9000 times g supernatant of Arochlor-1254-induced rat liver homogenate at a level of 100 μl per ml of S-9 mix.

[3] = tested on: flies (family Muscidae); assay: Chemosterilancy tests (egg hatch and pupal development; Examples 6-9); format: in vivo
Summary of the method: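 Compound fed to flies in sugar/milk powder/egg yolk diet, applied in acetone that was then evaporated. 100 laid eggs per cup transferred onto larval rearing medium. Scored as percentage egg hatch and pupal development.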

[4] = tested on: early fourth-stage larvae of the common malaria mosquito (Anopheles quadrimaculatus); assay: Growth-inhibition tests on mosquito larvae; format: in vivo; conditions: in water; corrected by Abbott's formula
Summary of the method: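 Fifty early fourth-instar larvae held in 1 L treated water with daily feeding; pupae moved to emergence cages. Dead larvae, pupae and dead, malformed or non-eclosing adults summed, Abbott-corrected as growth inhibition; GI-90 is ppm concentration inhibiting 90% of larvae.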

[5] = tested on: screwworm flies; assay: Anti-procreant tests on screw-worm fly; format: in vivo
Protocol: These tests were conducted on mass-reared screwworm flies which had been obtained as pupae from the screwworm fly plant at Mission, Texas. The flies were held in cages with water and undiluted corn syrup in a colony room maintained at about 27° C. and 60% relative humidity (RH) with a 12-hour photoperiod beginning at 6 a.m. Adults that emerged were lightly anesthetized with CO2 for ease of manipulation the same day.
The mixtures obtained were fed to the flies in "Dixie" paper cups, 7 cm diameter, and rice hulls were placed on the surface of the food to prevent the flies from getting stuck in the viscous mixture.
Initially, varying concentrations of a chemosterilant were fed to the flies for the first 5 days of life. Thereafter, the chemosterilant was replaced with pure corn syrup. On the 7th day, 3 replicates of 10 flies were stimulated to oviposit and the flies which oviposited were checked for insemination by an examination of the spermathecae for live sperms. The total number of eggs per fly was estimated and the hatchability of these eggs (fertility) was determined 24 hours later (at 37° C.). Observations were made to determine percentage of egg hatch.

[6] = tested on: flies (family Muscidae); assay: Oviposition inhibition tests (treated fly food; Examples 6-9); format: in vivo
Summary of the method: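 Compound mixed via acetone into sugar/dry milk/egg yolk fly food, solvent evaporated. Cages of 100 newly-emerged adults fed treated diet 6-7 days, then given moist CSMA larva-rearing medium for 4-6 h; cups examined for eggs.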

[7] = Oral toxicity in mice; conditions: mouse, in vivo; oral, mice; read-out: Estimated LD50
Protocol: (§1) Compounds D, A, and B were also assayed for oral toxicity in mice.

[8] = tested on: mice; assay: Oral toxicity in mice; conditions: mouse, in vivo, po
Protocol: as §1

[9] = tested on: male flies (family Muscidae); assay: Sterilization of treated males crossed with virgin untreated females; format: in vivo
Protocol: The compound to be tested was administered in a standard fly food containing 6 parts of sugar, 6 parts of powdered non-fat dry milk, and 1 part of powdered egg yolk. Treated food was prepared by mixing an appropriate amount of a solution or suspension of CBCP in acetone with a batch of the food. The acetone was evaporated (4-6 hours) and the dry material was repulverized.
These flies were maintained on untreated fly food. After 5 days, cups containing the larval-rearing medium was provided as previously described and a 100-egg sample was collected and place on moist larve-rearing medium. About a week after oviposition, examination was made to determine the percentage of hatched eggs and of pupae developed.

Structure (SMILES) | solubility in water [1] | mutagenic activity [2] | Egg hatch ([3]; 0.01% in food) [%] | Pupal development ([3]; 0.01% in food) [%] | Egg hatch ([3]; 0.025% in food) [%] | Pupal development ([3]; 0.025% in food) [%] | GI-90 (concentration of growth inhibitor that would prevent and/or retard growth in 90% of the treated larvae) [4] [ppm] | Inhibition of embryogenesis ([5]; 0.10% in food) [%] | Oviposition ([5]; 0.10% in food) [%] | Survival, Female ([5]; 0.10% in food) [%] | Survival, Male ([5]; 0.10% in food) [%] | Mortality, parent generation ([6]; 0.01% in food) [%] | Mortality, parent generation ([6]; 0.025% in food) [%] | Mortality, parent generation ([6]; 0.05% in food) [%] | Mortality, parent generation ([6]; 0.1% in food) [%] | Mortality, parent generation ([6]; 0.25% in food) [%] | Egg hatch ([3]; 0.05% in food) [%] | Egg hatch ([3]; 0.25% in food) [%] | Pupal development ([3]; 0.25% in food) [%] | Mortality, parent generation ([6]; 1.0% in food) [%] | further results
C=CCc1cc2c(cc1Cc1ccc(OC)cc1)OCO2 [CC, (4-Methoxybenzyl)-3,4-methylenedioxy-6-(2-propenyl)benzene] | low solubility in water | non-mutagenic | 15 | 15 | 0 | 0 | 0.2 | 100 | 65.0 | 92.7 | 45.0 | 0 | 0 | 0 | 0 | 50 | – | – | – | – | –
CC(c1ccccc1)c1cc(C(C)(C)C)cc(C(C)(C)C)c1O (stereo not drawn) [A, 4,6-Di-t-butyl-2-α-methylbenzylphenol] | low solubility in water | non-mutagenic | 39 | 39 | 28 | 28 | 0.039 | 100 | 90.0 | 68.0 | 47.0 | 0 | 0 | 0 | 0 | 0 | 0 | 0 | 0 | – | Pupal development ([3]; 0.05% in food): 0%; Egg hatch ([3]; 0.1% in food): 0%; Pupal development ([3]; 0.1% in food): 0%; Inhibition of embryogenesis ([5]; 0.01% in food): 100%; Oviposition ([5]; 0.01% in food): 63.3%; Survival, Female ([5]; 0.01% in food): 71.3%; Survival, Male ([5]; 0.01% in food): 54.0%; LD50 [7]: 2510 mg/kg; oral toxicity (in words) [8]: only slightly toxic
CCCOc1cc2c(cc1C(C)c1ccc(OC)cc1)OCO2 (stereo not drawn) [I, (α-Methyl-4-methoxybenzyl)-3,4-methylenedioxy-6-n-propoxybenzene] | – | – | 63 | 63 | 38 | 38 | 0.042 | – | – | – | – | 0 | 0 | – | – | – | – | – | – | 0 | sterilization of males ([9]; 1.0% in food): 100%
COc1ccc(Cc2cc(C(C)(C)C)cc(C(C)(C)C)c2O)cc1 [C, 4,6-Di-t-butyl-2-(4-methoxybenzyl)phenol] | low solubility in water | – | 45 | 45 | 0 | 0 | – | 100 | 75.0 | 66.0 | 63.0 | 0 | 0 | 0 | 0 | 0 | 0 | 0 | 0 | 0 | Pupal development ([3]; 0.05% in food): 0%; Egg hatch ([3]; 0.1% in food): 0%; Pupal development ([3]; 0.1% in food): 0%; sterilization of males ([9]; 0.25% in food): 100%; Oviposition ([6]; 0.25% in food): Normal; Mortality, parent generation ([6]; 0.5% in food): 0%; Oviposition ([6]; 0.5% in food): None; Oviposition ([6]; 1.0% in food): None
COc1ccc(C(C)c2cc(C(C)(C)C)cc(C(C)(C)C)c2O)cc1 (stereo not drawn) [B, 4,6-di-t-butyl-2-(α-methyl-4-methoxybenzyl)phenol] | – | non-mutagenic | – | – | – | – | – | – | – | – | – | – | – | – | – | 0 | – | 18 | 18 | 0 | Egg hatch ([3]; 0.5% in food): 0%; Pupal development ([3]; 0.5% in food): 0%; Egg hatch ([3]; 1.0% in food): 0%; Pupal development ([3]; 1.0% in food): 0%; LD50 [7]: 3550 mg/kg; oral toxicity (in words) [8]: only slightly toxic; Mortality, parent generation ([6]; 0.5% in food): 0%
